Experimental data: patent US10882901B2, “Methods of treating diabetes by an adipocyte protein 2 specific antibody” (President and Fellows of Harvard College, priority 2009, dated 2021)
Entries after “also recorded” stand apart in the source; their conditions may differ.

Tests used:
[1] = tested on: differentiated adipocytes; assay: aP2 secretion into conditioned medium of differentiated adipocytes (immunoblot); type: cell-based; conditions: for aP2 release from adipocytes treated with inhibitors of classical secretory pathways: conditioned medium blotted with anti-aP2; for lipolysis-induced aP2 secretion from adipocytes: co-treatment of adipocytes in which lipolysis was induced (IBMX/dbcAMP)
Source text: HEK 293 cells were maintained in DMEM with 10% fetal bovine serum. FABP-deficient cell lines were established as previously described. Cao, H. et al. Identification of a lipokine, a lipid hormone linking adipose tissue to systemic metabolism. Cell 134, 933-944 (2008). Makowski, L. et al. Lack of macrophage fatty-acid-binding protein aP2 protects mice deficient in apolipoprotein E against atherosclerosis. Nat Med 7, 699-705 (2001). Pre-adipocytes were maintained in DMEM with 10% bovine calf serum and differentiated into adipocytes in DMEM with 10% cosmic calf serum (CCS) using a standard differentiation protocol. To induce lipolysis, differentiated adipocytes were treated with forskolin at 20 nM, or IBMX 1 mM/dibutyryl cAMP 1 mM for one hour. For lipid treatments, 0.25 mM palmitate or stearate was dissolved in DMEM with 10% CCS and added to adipocytes cultured in 12-well plates. At the end of one hour, the medium was replaced with the same lipid-containing medium, and conditioned medium was collected an additional hour later. To collect fat explants, epididymal adipose tissue depots were dissected from mice and rinsed twice in PBS. Adipose tissue samples were then transferred into DMEM with 10% CCS and minced into an average size of 1 to 2 mm. The tissue explants were washed extensively with DMEM and cultured in DMEM containing 10% CCS. Lipolysis was induced in the same manner as adipocytes.
(§1) Tissue protein lysate and conditioned medium from adipocytes were separated on SDS-PAGE gels and stained with Coomassie (Biorad Laboratory), or were detected with immunoblotting using the following antibodies: adiponectin from Santa Cruz Biotechnology, MFG-E8 from Calbiochem, caveolin-1 from BD Bioscience, AKT from Cell Signaling Technology. Flag-tagged aP2 was immunoprecipated using 4 ml of conditioned medium from transfected HEK 293 cells after incubation with 30 μl Flag agarose beads (Sigma) overnight at 4° C. Proteins bound to agarose beads were eluted with SDS loading buffer and resolved with SDS-PAGE.

[2] = tested on: differentiated adipocytes; assay: Adiponectin secretion into conditioned medium of differentiated adipocytes (immunoblot); type: cell-based; conditions: inhibitors of classical secretory pathways
Source text: FIG. 7A is a photograph of an electrophonetic gel showing non-classical secretion of aP2. Conditioned medium from adipocytes treated with control, brefeldin A (Bref A) or monensin (Mon) were blotted using anti-aP2 or adiponectin antibodies. Whole cell lysate (WCL) was also blotted using anti-aP2 antibody.
as §1

[3] = tested on: serum aP2; assay: Serum aP2 in mice after isoproterenol-induced lipolysis; type: in vivo; conditions: isoproterenol 10 mg/kg, blood 15 min following injection, vs vehicle
Description: Blood was collected from mice by tail bleeding after 6 hours of food withdrawal and spun in a microcentrifuge at 13,000 rpm for 30 minutes. Serum aP2 was determined with an ELISA system (Biovendor Inc.). […] To determine aP2 levels during lipolysis, blood was collected from 12 mice at baseline levels. After this, 6 mice were injected with isoproterenol (10 mg/kg body weight) and the other 6 received vehicle control. Blood samples were collected 15 min following injection for aP2 measurement.

[4] = tested on: PEPCK and G6P; assay: Liver gluconeogenic gene expression by quantitative real-time PCR; type: in vivo; conditions: WT mice infused with recombinant aP2 vs control protein
Description: FIG. 6K is a bar graph showing gene expression in livers of WT mice infused with control protein or recombinant aP2 (top panel) or mice on HFD injected with control or aP2 antibody (bottom panel). PEPCK and G6P in liver tissues were analyzed with quantitative real-time PCR. *, p<0.05.
Total RNA was isolated from liver tissues using Trizol reagent (Invitrogen). Reverse transcription was carried out with a superscript first-strand cDNA synthesis system (Applied Biosystems Inc.) using 1 μg of RNA. Quantitative, real-time RT-PCR was performed on a PCR thermal cycler (Applied Biosystems Inc.). The PCR program was: 2 min 30 s at 95° C. for enzyme activation, 40 cycles of 15 s at 95° C., 30 s at 58° C., and 1 min at 72° C. for extension. Melting curve analysis was performed to confirm the real-time PCR products. All quantitations were normalized to the 1 8S rRNA. Primer sequences used were the following: PEPCK, forward: […](SEQ ID NO: 5), reverse: CAGCAACTGCCCGTACTCC (SEQ ID NO: 6); G6P, forward: […] (SEQ ID NO:7), reverse: […] (SEQ ID NO: 8).

[5] = Serum aP2 ELISA after recombinant aP2 injection or infusion; type: in vivo, mice
Description: FIG. 11 is a bar graph showing serum aP2 in WT mice after recombinant aP2 injection. Serum samples of mice were collected at indicated time points after aP2 injection and aP2 levels were determined with an aP2 ELISA.
FIG. 13 is a line graph showing Serum aP2 in FABP-deficient (DKO) mice during aP2 infusion. Serum samples were collected from FABP-deficient mice during aP2 infusion at indicated time points. Serum aP2 levels were determined with an aP2 ELISA.
Blood was collected from mice by tail bleeding after 6 hours of food withdrawal and spun in a microcentrifuge at 13,000 rpm for 30 minutes. Serum aP2 was determined with an ELISA system (Biovendor Inc.). To monitor nutritional regulation of serum aP2, blood samples were collected from mice immediately prior to the start of dark cycle after which animals were placed in cages without food. After 24 hours of fasting, a second set of blood samples were collected and food was provided. Final blood sampling was performed 4 hours after re-feeding. To determine aP2 levels during lipolysis, blood was collected from 12 mice at baseline levels. After this, 6 mice were injected with isoproterenol (10 mg/kg body weight) and the other 6 received vehicle control. Blood samples were collected 15 min following injection for aP2 measurement. […]

[6] = tested on: WT mice maintained on regular chow diet; assay: Glucose tolerance test of regular diet mice injected with recombinant aP2; type: in vivo; conditions: lean WT mice, recombinant aP2 100 μg twice a day for two weeks, vs control Gus protein
Source text: FIG. 6I is a line graph showing glucose tolerance test of mice on regular diet injected with control Gus protein or recombinant aP2 for two weeks. *, p<0.05. Mice with homozygous null mutations in aP2 and mall were backcrossed more than 12 generations into a C57BL/6J genetic background. Mice were maintained on regular chow diet (RD) or placed on high-fat diet (Research Diets, Inc) at 4 weeks of age for 20 weeks to induce dietary obesity. Leptin-deficient (ob/ob) mice were purchased from the Jackson laboratory. All mice were maintained on a 12-hour light and dark cycle. Glucose and insulin tolerance tests using standard methods. Recombinant aP2 or control Gus protein with 6×His tag was produced in E. coli and purified with B-PER 6×His Spin Purification Kit (Pierce Biotechnology, Inc). Proteins were further purified by removing endotoxin with a commercial system (Lonza Inc.). 100 μg of control or aP2 protein was injected into WT mice maintained on regular chow diet twice a day for two weeks. The rabbit polyclonal antibody against mouse aP2 was produced using recombinant, full-length aP2 protein and the antibody was purified from serum of the final bleed using the NAb™ Spin system (Pierce Biotechnology, Inc). Pre-immune serum was purified similarly and used as control. […]

[7] = tested on: FABP-deficient mice; assay: Hyperinsulinemic-euglycemic clamp in FABP-deficient mice infused with recombinant aP2; type: in vivo
Description: The mice were fasted overnight before the experiments and were infused with Intralipid at 3 ml/kg/h (Abbott) and heparin (6 U/h) for 5 hours. […] Mice were catheterized as described above. Hyperinsulinemic-euglycemic clamps were performed by a modification of a reported procedure^15. After an overnight fast, HPLC purified [3H]-glucose (0.05 μCi/min; PerkinElmer Life and Analytical Sciences, Boston, Mass.) was infused during the 2-h basal period, and blood samples were collected at the end to estimate the rate of basal hepatic glucose production. After the basal period, a 120-min hyperinsulinemic-euglycemic clamp was conducted with a primed-continuous infusion of human insulin (Humulin R; Eli Lilly, Indianapolis, Ind.) at a rate of 12.5 mU/kg/min. Blood samples were collected at 20-min intervals for the immediate measurement of plasma glucose concentrations, and 25% glucose was infused at variable rates to maintain plasma glucose at basal concentrations. Insulin-stimulated whole-body glucose turnover was estimated with a continuous infusion of [3-^3H]-glucose throughout the clamps (0.1 μCi/min). All infusions were performed using flow-controlled microdialysis pumps (CMA/Microdialysis, North Chelmsford, Mass.). Blood samples were taken at 80, 85, 90, 100, 110, and 120 min after the start of clamps for the determination of plasma [^3H]-glucose, and ^3H2O concentrations. […]

## C[C@H]1CCC/C=C/[C@@H]2C[C@H](O)C[C@H]2[C@H](O)/C=C/C(=O)O1 [brefeldin A]
[1]
  aP2 release from adipocytes treated with inhibitors of classical secretory pathways: neither had any inhibitory effect
[2]
  adiponectin secretion from adipocytes: efficiently blocked adiponectin secretion

## CC(C)NCC(O)c1ccc(O)c(O)c1 (centres unmarked) [isoproterenol]
[3]
  serum aP2 levels: rapid increase in serum aP2 levels

## CC[C@@]1([C@@H]2O[C@@H]([C@H]3O[C@@](O)(CO)[C@H](C)C[C@@H]3C)C[C@@H]2C)CC[C@H]([C@]2(C)CC[C@]3(C[C@H](O)[C@@H](C)[C@@H]([C@@H](C)[C@@H](OC)[C@H](C)C(=O)O)O3)O2)O1 [monensin]
[1]
  aP2 release from adipocytes treated with inhibitors of classical secretory pathways: neither had any inhibitory effect
[2]
  adiponectin secretion from adipocytes: efficiently blocked adiponectin secretion

## diethylumbelliferyl phosphate [DEUP]
[1]
  lipolysis-induced aP2 secretion from adipocytes: completely blocked lipolysis-induced aP2 secretion

## insulin
[1]
  lipolysis-induced aP2 secretion from adipocytes: aP2 secretion was suppressed

B1: recombinant aP2: Recombinant aP2 with 6×His tag produced in E. coli, purified, endotoxin removed (protein)
chain: CDAFVGTWKLVSSENFDDYMKEVGVGFATRKVAGMAKPNMIISVNGDLVTIRSESTFKNTEISFKLGVEFDEITADDRKVKSIITLDGGALVQVQKWDGKSTTIKRKRDGDKLVVECVMKGVTSTRVYERA
[4]
  G6P gene expression in liver: significantly upregulated
  PEPCK gene expression in liver: significantly upregulated
[5]; FABP-deficient mice, infusion 8 μg/kg/min
  serum aP2 levels during aP2 infusion: rapid increase in serum aP2 levels
[5]; WT mice on regular chow diet, injection
  serum aP2 levels after a single dose of recombinant aP2: increased levels of serum aP2 that lasted for several hours
[6]
  glucose tolerance in glucose tolerance test: mild glucose intolerance; also recorded: developed glucose intolerance
[7]; FABP-deficient mice infused with recombinant aP2
  glucose metabolism rates: absence of alterations in glucose metabolism rates
[7]; FABP-deficient mice infused with recombinant aP2 for 4 hours, vs control protein
  basal hepatic glucose production (bHGP): significantly increased basal hepatic glucose production
